{"source": "patent US20250381179A1", "about": "“CHROMAN-BASED COMPOUNDS FOR TREATING CANCER” (priority 2024, published 2025)", "key": {"[1]": {"system": "CYP3A", "test": "CYP3A direct inhibition", "format": "in vitro ADME", "conditions": "highest concentration evaluated (10 μM)"}, "[2]": {"test": "Phase 1 study: plasma pharmacokinetics in patients", "format": "in vivo, human", "conditions": "for conversion to compound (1-h) in patients: plasma PK after oral dosing", "method": "All patients received compound (1-g) orally. The time of day for administration of compound (1-g) was consistent. Compound (1-g) was taken whole with liquid(s) and with food in the morning. The patient avoided taking other medications at the same time as compound (1-g). When possible, the patient took other medications in the evening or separated by a minimum of 4 hours following compound (1-g) dosing. On scheduled PK collection days (Cycle 1 Day 1, Cycle 1 Day 15, and Day 1 of Cycles 2, 3, 4, and 6) patients were instructed to wait until they arrive at the study center to take their study drug when told. If a patient missed a dose of compound (1-g), the patient was required to take the dose as soon as possible, but not less than 12 hours before the next dose is due. If vomiting occurred after taking the study treatment, the patient was instructed not to retake the dose and record the dose recorded as taken in the dosing diary, noting that the patient vomited and marking the time of vomiting. Patients were instructed to take the next scheduled dose of compound (1-g).\nThe plasma PK parameters (including AUC(0-∞), AUC(0-τ), Cmax, tmax, and T1/2) of compound (1-g) following oral administration was assessed by analysis of blood samples. During treatment, PK blood samples were taken at approximately the following time points: • Cycle 1 Day 1, and Day 15: pre-dose; at 1, 2, and 4-hour post-dose (±5 min); 6 and 8-hour post-dose (±10 min); and 24 hours post-dose (+1 hour); • Cycle 2, 3, 4, and 6 Day 1: pre-dose only.\nPlasma concentrations of compound (1-g) were used to calculate the PK parameters. These parameters were listed by individual patient and summarized by descriptive statistics (means, medians, ranges, standard deviations, and coefficients of variation as appropriate) by cohort.\nCompound (1-g) was administered orally to patients once a day at 100, 200, 300 mg, 400 mg, and 600 mg doses."}, "[3]": {"system": "CYP3A"}}, "note": "Like-named read-outs stand apart in the source and are kept apart here."}
{"smiles": "O=C1CC[C@H](N2Cc3cc(N4CCN(CC5CCN(c6ccc([C@@H]7c8ccc(O)cc8OC[C@@H]7c7ccccc7)cc6F)CC5)CC4)ccc3C2=O)C(=O)N1", "note": "[compound (1-g), (S)-3-(5-(4-((1-(2-fluoro-4-((3S,4R)-7-hydroxy-3-phenylchroman-4-yl)phenyl)piperidin-4-yl)methyl)piperazin-1-yl)-1-oxoisoindolin-2-yl)piperidine-2,6-dione]", "values": [{"measurement": "CYP3A direct inhibition", "setting": "[1]", "result": "did not directly inhibit"}, {"measurement": "Tmax", "setting": "[2]; human, plasma, po, 100 mg, patient plasma, oral (1-g) 100 mg QD, C1D1, n = 3, *median value, read-out: Tmax*", "result": 12.7, "unit": "h"}, {"measurement": "AUC(0-t)", "setting": "[2]; human, plasma, po, 100 mg, patient plasma, oral (1-g) 100 mg QD, C1D1, n = 3, mean, read-out: AUC0-24 h", "result": 7570, "unit": "ng·h/mL"}, {"measurement": "Cmax", "setting": "[2]; human, plasma, po, 100 mg, patient plasma, oral (1-g) 100 mg QD, C1D1, n = 3, mean, read-out: Cmax", "result": 432, "unit": "ng/mL"}, {"measurement": "half-life", "setting": "[2]; human, plasma, po, 100 mg, patient plasma, oral (1-g) 100 mg QD, C1D1, n = 3, mean, read-out: T½ (converted)", "result": 20.2, "unit": "h"}, {"measurement": "AUC(0-t)", "setting": "[2]; human, plasma, po, 100 mg, patient plasma, oral (1-g) 100 mg QD, C1D15 (steady state), n = 3, mean, read-out: AUC0-24 h", "result": 19500, "unit": "ng·h/mL"}, {"measurement": "Cmax", "setting": "[2]; human, plasma, po, 100 mg, patient plasma, oral (1-g) 100 mg QD, C1D15 (steady state), n = 3, mean, read-out: Cmax", "result": 1010, "unit": "ng/mL"}, {"measurement": "Tmax", "setting": "[2]; human, plasma, po, 100 mg, patient plasma, oral (1-g) 100 mg QD, C1D15, n = 3, *median value, read-out: Tmax*", "result": 6.67, "unit": "h"}, {"measurement": "half-life", "setting": "[2]; human, plasma, po, 100 mg, patient plasma, oral (1-g) 100 mg QD, C1D15, n = 3, mean, read-out: T½ (converted)", "result": 32.1, "unit": "h"}, {"measurement": "Tmax", "setting": "[2]; human, plasma, po, 200 mg, patient plasma, oral (1-g) 200 mg QD, C1D1, n = 12, *median value, read-out: Tmax*", "result": 5.5, "unit": "h"}, {"measurement": "AUC(0-t)", "setting": "[2]; human, plasma, po, 200 mg, patient plasma, oral (1-g) 200 mg QD, C1D1, n = 12, mean, read-out: AUC0-24 h", "result": 11200, "unit": "ng·h/mL"}, {"measurement": "Cmax", "setting": "[2]; human, plasma, po, 200 mg, patient plasma, oral (1-g) 200 mg QD, C1D1, n = 12, mean, read-out: Cmax", "result": 630, "unit": "ng/mL"}, {"measurement": "half-life", "setting": "[2]; human, plasma, po, 200 mg, patient plasma, oral (1-g) 200 mg QD, C1D1, n = 12, mean, read-out: T½ (converted)", "result": 38.3, "unit": "h"}, {"measurement": "AUC(0-t)", "setting": "[2]; human, plasma, po, 200 mg, patient plasma, oral (1-g) 200 mg QD, C1D15 (steady state), n = 12, mean, read-out: AUC0-24 h", "result": 26000, "unit": "ng·h/mL"}, {"measurement": "Cmax", "setting": "[2]; human, plasma, po, 200 mg, patient plasma, oral (1-g) 200 mg QD, C1D15 (steady state), n = 12, mean, read-out: Cmax", "result": 1340, "unit": "ng/mL"}, {"measurement": "Tmax", "setting": "[2]; human, plasma, po, 200 mg, patient plasma, oral (1-g) 200 mg QD, C1D15, n = 12, *median value, read-out: Tmax*", "result": 4, "unit": "h"}, {"measurement": "half-life", "setting": "[2]; human, plasma, po, 200 mg, patient plasma, oral (1-g) 200 mg QD, C1D15, n = 12, mean, read-out: T½ (converted)", "result": 48.8, "unit": "h"}, {"measurement": "Tmax", "setting": "[2]; human, plasma, po, 300 mg, patient plasma, oral (1-g) 300 mg QD, C1D1, n = 10, *median value, read-out: Tmax*", "result": 5.8, "unit": "h"}, {"measurement": "AUC(0-t)", "setting": "[2]; human, plasma, po, 300 mg, patient plasma, oral (1-g) 300 mg QD, C1D1, n = 10, mean, read-out: AUC0-24 h", "result": 16600, "unit": "ng·h/mL"}, {"measurement": "Cmax", "setting": "[2]; human, plasma, po, 300 mg, patient plasma, oral (1-g) 300 mg QD, C1D1, n = 10, mean, read-out: Cmax", "result": 963, "unit": "ng/mL"}, {"measurement": "half-life", "setting": "[2]; human, plasma, po, 300 mg, patient plasma, oral (1-g) 300 mg QD, C1D1, n = 10, mean, read-out: T½ (converted)", "result": 31.2, "unit": "h"}, {"measurement": "AUC(0-t)", "setting": "[2]; human, plasma, po, 300 mg, patient plasma, oral (1-g) 300 mg QD, C1D15 (steady state), n = 10, mean, read-out: AUC0-24 h", "result": 41800, "unit": "ng·h/mL"}, {"measurement": "Cmax", "setting": "[2]; human, plasma, po, 300 mg, patient plasma, oral (1-g) 300 mg QD, C1D15 (steady state), n = 10, mean, read-out: Cmax", "result": 2190, "unit": "ng/mL"}, {"measurement": "Tmax", "setting": "[2]; human, plasma, po, 300 mg, patient plasma, oral (1-g) 300 mg QD, C1D15, n = 10, *median value, read-out: Tmax*", "result": 4.8, "unit": "h"}, {"measurement": "half-life", "setting": "[2]; human, plasma, po, 300 mg, patient plasma, oral (1-g) 300 mg QD, C1D15, n = 10, mean, read-out: T½ (converted)", "result": 32.9, "unit": "h"}, {"measurement": "Tmax", "setting": "[2]; human, plasma, po, 400 mg, patient plasma, oral (1-g) 400 mg QD, C1D1, n = 6, *median value, read-out: Tmax*", "result": 6, "unit": "h"}, {"measurement": "AUC(0-t)", "setting": "[2]; human, plasma, po, 400 mg, patient plasma, oral (1-g) 400 mg QD, C1D1, n = 6, mean, read-out: AUC0-24 h", "result": 18800, "unit": "ng·h/mL"}, {"measurement": "Cmax", "setting": "[2]; human, plasma, po, 400 mg, patient plasma, oral (1-g) 400 mg QD, C1D1, n = 6, mean, read-out: Cmax", "result": 1070, "unit": "ng/mL"}, {"measurement": "half-life", "setting": "[2]; human, plasma, po, 400 mg, patient plasma, oral (1-g) 400 mg QD, C1D1, n = 6, mean, read-out: T½ (converted)", "result": 30.4, "unit": "h"}, {"measurement": "Tmax", "setting": "[2]; human, plasma, po, 400 mg, patient plasma, oral (1-g) 400 mg QD, C1D15, n = 5, *median value, read-out: Tmax*", "result": 4.4, "unit": "h"}, {"measurement": "AUC(0-t)", "setting": "[2]; human, plasma, po, 400 mg, patient plasma, oral (1-g) 400 mg QD, C1D15, n = 5, mean, read-out: AUC0-24 h", "result": 45900, "unit": "ng·h/mL"}, {"measurement": "Cmax", "setting": "[2]; human, plasma, po, 400 mg, patient plasma, oral (1-g) 400 mg QD, C1D15, n = 5, mean, read-out: Cmax", "result": 2360, "unit": "ng/mL"}, {"measurement": "half-life", "setting": "[2]; human, plasma, po, 400 mg, patient plasma, oral (1-g) 400 mg QD, C1D15, n = 5, mean, read-out: T½ (converted)", "result": 44.9, "unit": "h"}, {"measurement": "Tmax", "setting": "[2]; human, plasma, po, 600 mg, patient plasma, oral (1-g) 600 mg QD, C1D1, n = 4, *median value, read-out: Tmax*", "result": 4.5, "unit": "h"}, {"measurement": "AUC(0-t)", "setting": "[2]; human, plasma, po, 600 mg, patient plasma, oral (1-g) 600 mg QD, C1D1, n = 4, mean, read-out: AUC0-24 h", "result": 26100, "unit": "ng·h/mL"}, {"measurement": "Cmax", "setting": "[2]; human, plasma, po, 600 mg, patient plasma, oral (1-g) 600 mg QD, C1D1, n = 4, mean, read-out: Cmax", "result": 1390, "unit": "ng/mL"}, {"measurement": "half-life", "setting": "[2]; human, plasma, po, 600 mg, patient plasma, oral (1-g) 600 mg QD, C1D1, n = 4, mean, read-out: T½ (converted)", "result": 40.9, "unit": "h"}, {"measurement": "Tmax", "setting": "[2]; human, plasma, po, 600 mg, patient plasma, oral (1-g) 600 mg QD, C1D15, n = 4, *median value, read-out: Tmax*", "result": 6, "unit": "h"}, {"measurement": "AUC(0-t)", "setting": "[2]; human, plasma, po, 600 mg, patient plasma, oral (1-g) 600 mg QD, C1D15, n = 4, mean, read-out: AUC0-24 h", "result": 48600, "unit": "ng·h/mL"}, {"measurement": "Cmax", "setting": "[2]; human, plasma, po, 600 mg, patient plasma, oral (1-g) 600 mg QD, C1D15, n = 4, mean, read-out: Cmax", "result": 2680, "unit": "ng/mL"}, {"measurement": "half-life", "setting": "[2]; human, plasma, po, 600 mg, patient plasma, oral (1-g) 600 mg QD, C1D15, n = 4, mean, read-out: T½ (converted)", "result": 27.6, "unit": "h"}, {"measurement": "AUC(0-t)", "setting": "[2]; human, plasma, po, patients, 100-600 mg QD oral, read-out: AUC0-24h, range", "result": "7570 to 48600", "unit": "ng·h/mL"}, {"measurement": "Cmax", "setting": "[2]; human, plasma, po, patients, 100-600 mg QD oral, read-out: Cmax, range", "result": "432 to 2680", "unit": "ng/mL"}, {"measurement": "half-life", "setting": "[2]; human, plasma, po, patients, 100-600 mg QD oral, read-out: mean effective T1/2 at steady state, range", "result": "20.2 to 48.8", "unit": "h"}, {"measurement": "Tmax", "setting": "[2]; human, plasma, po, patients, 100-600 mg QD oral, read-out: median Tmax, range across the dose levels", "result": "4 to 13", "unit": "h"}, {"measurement": "Cmax", "setting": "[2]; patient plasma, oral (1-g) 100 mg QD, C1D15 (steady state), n = 3, mean", "result": 1008.67, "unit": "ng/mL"}, {"measurement": "Cmax", "setting": "[2]; patient plasma, oral (1-g) 200 mg QD, C1D15 (steady state), n = 12, mean", "result": 1341.75, "unit": "ng/mL"}, {"measurement": "dose proportionality of pharmacokinetics", "setting": "[2]; patients, FIGS. 4A, 4C, 4D", "result": "dose proportional relationship up to 400 mg but almost plateaued at 400 mg"}, {"measurement": "Cmax and AUC0-24h versus dose", "setting": "[2]; patients, preliminary results", "result": "dose-dependent increases"}, {"measurement": "conversion to compound (1-h) in patients", "setting": "[2]", "result": "partially converted to compound (1-h)"}, {"measurement": "conversion to compound (1-h) in patients", "setting": "[2]; listed as 1-g", "result": "partially metabolized to form compound 1-h"}, {"measurement": "CYP3A time-dependent inhibition", "setting": "[3]", "result": "weak time-dependent inhibition"}]}
